In patent publication US12552804B2, “Tricyclic heterocycles as FGFR inhibitors” (Incyte Corporation, priority 2019, dated 2026) one finds Ki data, which are given here for 30 compounds.

pKi: −log10 of the molar value. Where only a bound is given, the exact number is not on record here.

wild-type un-phosphorylated FGFR3 protein, sequence (P22607 23-806): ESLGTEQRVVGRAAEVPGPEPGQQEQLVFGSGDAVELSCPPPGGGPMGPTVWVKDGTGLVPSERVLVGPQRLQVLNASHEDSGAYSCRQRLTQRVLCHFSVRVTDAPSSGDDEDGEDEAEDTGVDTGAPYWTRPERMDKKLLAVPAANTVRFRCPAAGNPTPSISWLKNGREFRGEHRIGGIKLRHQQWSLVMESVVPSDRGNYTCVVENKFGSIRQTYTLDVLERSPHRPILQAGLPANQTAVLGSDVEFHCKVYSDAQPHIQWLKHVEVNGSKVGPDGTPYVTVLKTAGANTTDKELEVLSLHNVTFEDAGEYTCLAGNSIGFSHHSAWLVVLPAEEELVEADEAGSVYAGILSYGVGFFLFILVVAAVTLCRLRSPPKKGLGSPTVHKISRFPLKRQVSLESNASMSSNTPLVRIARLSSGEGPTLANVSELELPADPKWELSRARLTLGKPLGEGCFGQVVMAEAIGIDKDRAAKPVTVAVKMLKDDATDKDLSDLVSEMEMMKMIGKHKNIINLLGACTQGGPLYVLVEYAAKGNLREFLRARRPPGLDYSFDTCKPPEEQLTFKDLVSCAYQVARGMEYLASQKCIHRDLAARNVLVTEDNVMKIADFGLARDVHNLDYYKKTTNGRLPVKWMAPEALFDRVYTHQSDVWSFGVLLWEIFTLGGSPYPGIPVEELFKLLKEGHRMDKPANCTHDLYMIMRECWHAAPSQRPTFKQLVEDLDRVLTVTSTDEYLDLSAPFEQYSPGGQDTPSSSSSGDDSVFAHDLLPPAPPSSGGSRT

The assay deals with wild-type un-phosphorylated FGFR3 protein (Homo sapiens, UniProt P22607). The assay is described as follows: FGFR Enzymatic Assay (FRET detection of peptide phosphorylation). The assay is classed as biochemical. Conditions: pre-incubated for 4 hours, read-out: FGFR3_Ki. Here is the method:
The inhibitor potency of the exemplified compounds was determined in an enzyme discontinuous assay that measures peptide phosphorylation using FRET measurements to detect product formation. Inhibitors were serially diluted in DMSO and a volume of 0.2 μL was transferred to the wells of a 384-well plate. A 5 μL/well volume of enzyme isoforms of FGFR (−1, −2, −3 wild-type and mutant isoforms, −4) including phosphorylated and un-phosphorylated proteins diluted in assay buffer (50 mM HEPES, 10 mM MgCl2, 1 mM EGTA, 0.01% Tween-20, 5 mM DTT, pH 7.5) was added to the plate and pre-incubated with inhibitor for 5 to 15 minutes at ambient temperature. Appropriate controls (enzyme blank and enzyme with no inhibitor) were included on the plate. […] The ATP Km values were pre-determined in a separate series of experiments. The reaction plate was incubated at 25° C. for 1 hr and the reactions were ended with the addition of 5 μL/well of quench solution (50 mM Tris, 150 mM NaCl, 0.5 mg/mL BSA, pH 7.8; 45 mM EDTA, 600 nM staurosporin, with Perkin Elmer Lance Reagents at 3.75 nM Eu-antibody PY20 and 180 nM APC-Streptavidin). The plate was allowed to equilibrate for ˜10 minutes at ambient temperature before scanning on a PheraStar plate reader (BMG Labtech) instrument.
Either GraphPad prism or XLfit was used to analyze the data. The IC50 values were derived by fitting the data to a four parameter logistic equation producing a sigmoidal dose-response curve with a variable Hill coefficient. Prism equation: Y=Bottom+(Top−Bottom)/(1+10^((LogIC50−X)*Hill slope)); XLfit equation: Y=(A+((B−A)/(1+((X/C)^D)))) where X is the logarithm of inhibitor concentration and Y is the response.
The data in Table 1 was measured in wild-type un-phosphorylated FGFR3 protein.
As to `Cc1c(-c2ccccc2Cl)nc2c3cc(-c4cnn(C)c4)cnc3ccn12` [Example 1, 2-(2-Chlorophenyl)-3-methyl-9-(1-methyl-1H-pyrazol-4-yl)imidazo[2,1-f][1,6]naphthyridine], the pKi is 7.00 to 8.00.

With `Cn1cc(-c2cnc3ccn4c(C5=CCCC5)c(-c5ccccc5Cl)nc4c3c2)cn1` [Example 2, 2-(2-Chlorophenyl)-3-(cyclopent-1-en-1-yl)-9-(1-methyl-1H-pyrazol-4-yl)imidazo[2,1-f][1,6]naphthyridine], the pKi was 6.40 to 7.00.

Take `C/C=C/c1c(-c2ccccc2Cl)nc2c3cc(-c4cnn(C)c4)cnc3ccn12` [Example 3, (E)-2-(2-Chlorophenyl)-9-(1-methyl-1H-pyrazol-4-yl)-3-(prop-1-en-1-yl)imidazo[2,1-f][1,6]naphthyridine]: the pKi was 7.00 to 8.00.

Turning to `COc1cc(OC)cc(-c2c(-c3ccccc3Cl)nc3c4cc(-c5cnn(C)c5)cnc4ccn23)c1` [Example 4, 2-(2-Chlorophenyl)-3-(3,5-dimethoxyphenyl)-9-(1-methyl-1H-pyrazol-4-yl)imidazo[2,1-f][1,6]naphthyridine], the pKi was more than 8.00.

With `Cn1cc(-c2cnc3ccn4c(-c5cnn(C)c5)c(-c5ccccc5Cl)nc4c3c2)cn1` [Example 5, 2-(2-Chlorophenyl)-3,9-bis(1-methyl-1H-pyrazol-4-yl)imidazo[2,1-f][1,6]naphthyridine], the pKi is 6.40 to 7.00.

Consider `Cn1cc(-c2cnc3ccn4c(-c5ccco5)c(-c5ccccc5Cl)nc4c3c2)cn1` [Example 6, 2-(2-Chlorophenyl)-3-(furan-2-yl)-9-(1-methyl-1H-pyrazol-4-yl)imidazo[2,1-f][1,6]naphthyridine], for which the pKi is 7.00 to 8.00.

On to `Cn1cc(-c2cnc3ccn4c(C#N)c(-c5ccccc5Cl)nc4c3c2)cn1` [Example 7, 2-(2-Chlorophenyl)-9-(1-methyl-1H-pyrazol-4-yl)imidazo[2,1-f][1,6]naphthyridine-3-carbonitrile], for which the pKi was 6.40 to 7.00.

Regarding `Cn1cc(-c2cnc3ccn4c(C5CC5)c(-c5ccccc5Cl)nc4c3c2)cn1` [Example 8, 2-(2-Chlorophenyl)-3-cyclopropyl-9-(1-methyl-1H-pyrazol-4-yl)imidazo[2,1-f][1,6]naphthyridine], the pKi is more than 8.00.

`CCc1c(-c2ccccc2Cl)nc2c3cc(-c4cnn(C)c4)cnc3ccn12` [Example 9, 2-(2-Chlorophenyl)-3-ethyl-9-(1-methyl-1H-pyrazol-4-yl)imidazo[2,1-f][1,6]naphthyridine]: the pKi was 7.00 to 8.00.

For `Cn1cc(-c2cnc3ccn4c(Cl)c(-c5ccccc5Cl)nc4c3c2)cn1` [Example 10, 3-Chloro-2-(2-chlorophenyl)-9-(1-methyl-1H-pyrazol-4-yl)imidazo[2,1-f][1,6]naphthyridine], the pKi is 7.00 to 8.00.

Regarding `Cn1cc(-c2cnc3ccn4cc(-c5c(F)cccc5F)nc4c3c2)cn1` [Example 11, 2-(2,6-Difluorophenyl)-9-(1-methyl-1H-pyrazol-4-yl)imidazo[2,1-f][1,6]naphthyridine], the pKi was 7.00 to 8.00.

Take `Cc1nn(C)cc1-c1cnc2ccn3cc(-c4c(F)cccc4Cl)nc3c2c1` [Example 12, 2-(2-Chloro-6-fluorophenyl)-9-(1,3-dimethyl-1H-pyrazol-4-yl)imidazo[2,1-f][1,6]naphthyridine]: the pKi was 7.00 to 8.00.

Take `Cn1cc(-c2cnc3ccn4c(C5CC5)c(-c5ccccc5Cl)nc4c3n2)cn1` [Example 13, 9-(2-Chlorophenyl)-8-cyclopropyl-2-(1-methyl-1H-pyrazol-4-yl)imidazo[1′,2′:1,2]pyrido[3,4-b]pyrazine]: the pKi was more than 8.00.

Take `Cn1cc(-c2cnc3ccn4cc(-c5c(F)cccc5Cl)nc4c3n2)cn1` [Example 14, 9-(2-Chloro-6-fluorophenyl)-2-(1-methyl-1H-pyrazol-4-yl)imidazo[1′,2′:1,2]pyrido[3,4-b]pyrazine]: the pKi was 7.00 to 8.00.

On to `CC(=O)N1CCC(n2cc(-c3cnc4ccn5cc(-c6c(Cl)cccc6Cl)nc5c4c3)cn2)C1` (stereo not drawn) [Example 15, 1-(3-(4-(2-(2,6-Dichlorophenyl)imidazo[2,1-f][1,6]naphthyridin-9-yl)-1H-pyrazol-1-yl)pyrrolidin-1-yl)ethan-1-one], for which the pKi is more than 8.00.

Consider `O=C(O)[C@H]1CC[C@H](n2cc(-c3cnc4ccn5c(C6CC6)c(-c6ccccc6Cl)nc5c4c3)cn2)CC1` [Example 16, (1R,4R)-4-(4-(2-(2-Chlorophenyl)-3-cyclopropylimidazo[2,1-f][1,6]naphthyridin-9-yl)-1H-pyrazol-1-yl)cyclohexane-1-carboxylic acid], for which the pKi was more than 8.00.

Turning to `CC(=O)N[C@H]1CC[C@H](n2cc(-c3cnc4ccn5c(C6CC6)c(-c6ccccc6Cl)nc5c4c3)cn2)CC1` [Example 17, N-((1R,4R)-4-(4-(2-(2-Chlorophenyl)-3-cyclopropylimidazo[2,1-f][1,6]naphthyridin-9-yl)-1H-pyrazol-1-yl)cyclohexyl)acetamide], the pKi is more than 8.00.

Regarding `Cc1cccc(F)c1-c1nc2c3nc(-c4cnn(C)c4)cnc3ccc2n1C` [Example 18, 2-(2-Fluoro-6-methylphenyl)-3-methyl-8-(1-methyl-1H-pyrazol-4-yl)-3H-imidazo[4,5-f]quinoxaline], the pKi was 7.00 to 8.00.

Turning to `COc1ccc(-c2nc3c4nc(-c5cnn(C)c5)cnc4ccc3n2C)c(Cl)c1` [Example 19, 2-(2-Chloro-4-methoxyphenyl)-3-methyl-8-(1-methyl-1H-pyrazol-4-yl)-3H-imidazo[4,5-f]quinoxaline], the pKi is 6.40 to 7.00.

In the case of `Cc1ccoc1-c1nc2c3nc(-c4cnn(C)c4)cnc3ccc2n1C` [Example 20, 3-Methyl-8-(1-methyl-1H-pyrazol-4-yl)-2-(3-methylfuran-2-yl)-3H-imidazo[4,5-f]quinoxaline], the pKi is 6.40 to 7.00.

Take `Cn1c(-c2c(F)cccc2Cl)nc2c3nc(-c4cnn(C5CC(O)C5)c4)cnc3ccc21` (stereo not drawn) [Example 21, 3-(4-(2-(2-Chloro-6-fluorophenyl)-3-methyl-3H-imidazo[4,5-f]quinoxalin-8-yl)-1H-pyrazol-1-yl)cyclobutan-1-ol]: the pKi was more than 8.00.

In the case of `CC(=O)N1CCN(c2ccc(-c3cnc4ccc5c(nc(-c6c(F)cccc6Cl)n5C)c4n3)cn2)CC1` [Example 22, 1-(4-(5-(2-(2-Chloro-6-fluorophenyl)-3-methyl-3H-imidazo[4,5-f]quinoxalin-8-yl)pyridin-2-yl)piperazin-1-yl)ethan-1-one], the pKi is more than 8.00.

Regarding `CN1CCC(c2nc3c4nc(-c5cnn(C)c5)cnc4ccc3n2C)CC1` [Example 23, 3-Methyl-8-(1-methyl-1H-pyrazol-4-yl)-2-(1-methylpiperidin-4-yl)-3H-imidazo[4,5-f]quinoxaline], the pKi was not above 6.40.

As to `Cn1cc(-c2cnc3ccc4c(nc(N5[C@@H]6CC[C@H]5C(=O)NC6)n4C)c3n2)cn1` [Example 24, (1S,5R)-8-(3-Methyl-8-(1-methyl-1H-pyrazol-4-yl)-3H-imidazo[4,5-f]quinoxalin-2-yl)-3,8-diazabicyclo[3.2.1]octan-2-one], the pKi is not above 6.40.

With `Cc1c(-c2c(Cl)cccc2C(F)(F)F)nc2c3cc(-c4cnn([C@H]5CCN(C(=O)CO)C5)c4)cnc3ccn12` [Example 25, (S)-1-(3-(4-(2-(2-Chloro-6-(trifluoromethyl)phenyl)-3-methylimidazo[2,1-f][1,6]naphthyridin-9-yl)-1H-pyrazol-1-yl)pyrrolidin-1-yl)-2-hydroxyethan-1-one], the pKi was more than 8.00.

Consider `Cc1cccc(C)c1-c1nc2c3cc(-c4cnn([C@H]5CCN(C(=O)CO)C5)c4)cnc3ccn2c1C` [Example 26, (S)-1-(3-(4-(2-(2,6-Dimethylphenyl)-3-methylimidazo[2,1-f][1,6]naphthyridin-9-yl)-1H-pyrazol-1-yl)pyrrolidin-1-yl)-2-hydroxyethan-1-one], for which the pKi was more than 8.00.

Turning to `Cc1c(-c2c(F)cccc2C#N)nc2c3cc(-c4cnn([C@H]5CCN(C(=O)CO)C5)c4)cnc3ccn12` [Example 27, (S)-3-Fluoro-2-(9-(1-(1-(2-hydroxyacetyl)pyrrolidin-3-yl)-1H-pyrazol-4-yl)-3-methylimidazo[2,1-f][1,6]naphthyridin-2-yl)benzonitrile], the pKi is 7.00 to 8.00.

For `COc1cccc(F)c1-c1nc2c3cc(-c4cnn([C@H]5CCN(C(=O)CO)C5)c4)cnc3ccn2c1C` [Example 28, (S)-1-(3-(4-(2-(2-Fluoro-6-methoxyphenyl)-3-methylimidazo[2,1-f][1,6]naphthyridin-9-yl)-1H-pyrazol-1-yl)pyrrolidin-1-yl)-2-hydroxyethan-1-one], the pKi was 7.00 to 8.00.

In the case of `Cc1cccc(-c2nc3c4cc(-c5cnn(C)c5)cnc4ccn3c2C)c1C` [Example 29, 2-(2,3-Dimethylphenyl)-3-methyl-9-(1-methyl-1H-pyrazol-4-yl)imidazo[2,1-f][1,6]naphthyridine], the pKi is 7.00 to 8.00.

Take `Cc1cc(CO)ccc1-c1nc2c3cc(-c4cnn(C)c4)cnc3ccn2c1C` [Example 30, (3-Methyl-4-(3-methyl-9-(1-methyl-1H-pyrazol-4-yl)imidazo[2,1-f][1,6]naphthyridin-2-yl)phenyl)methanol]: the pKi was 7.00 to 8.00.
